Consider 31 molecules from US20030095958A1, “Inhibitors of bace” (priority 2001, published 2003).

Sequence of BACE (P56817 46-501): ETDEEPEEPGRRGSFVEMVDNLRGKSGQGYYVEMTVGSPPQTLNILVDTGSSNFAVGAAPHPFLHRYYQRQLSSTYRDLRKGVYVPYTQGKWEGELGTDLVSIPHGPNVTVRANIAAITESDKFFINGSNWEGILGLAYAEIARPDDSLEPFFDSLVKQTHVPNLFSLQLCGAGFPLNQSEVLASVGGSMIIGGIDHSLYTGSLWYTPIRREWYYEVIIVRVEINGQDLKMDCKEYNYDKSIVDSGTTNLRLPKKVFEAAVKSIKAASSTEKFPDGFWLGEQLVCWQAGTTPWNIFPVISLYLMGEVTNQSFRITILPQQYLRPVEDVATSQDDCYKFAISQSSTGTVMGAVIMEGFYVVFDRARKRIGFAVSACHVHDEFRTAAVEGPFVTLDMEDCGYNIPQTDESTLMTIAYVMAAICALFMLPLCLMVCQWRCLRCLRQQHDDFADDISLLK

For the assay, the target named is BACE (Homo sapiens, UniProt P56817). In words: Ki Determination for the Inhibition of BACE (FS-1 peptide fluorescence cleavage assay). The assay is classed as biochemical. The conditions noted are these: apparent Ki; 50 nM BACE, 10 μM FS-1 substrate, 0.1M sodium acetate pH 4.5. On the procedure:
Compounds were tested against BACE activity using the following modifications of the method described in J. Ermolieff et al. (2000) Biochemistry 39(51):16263.
All compound evaluations were performed in 0.1M sodium acetate (buffer), pH, 4.5, 10 μM substrate (FS-1 peptide as described in the reference above; this is commercially available), varying concentrations of the test compound or control (DMSO to yeild 2% vol/vol), and 50 nM BACE. The assay volume is 100 μL.
Two microliters of the test compound dissolved in DMSO are added to each well in a 96-well microtiter plate. Seventy eight microliters of BACE are mixed with buffer and added to each well then incubated at room temperature for 15 minutes. A stock solution of 50 μM FS-1 substrate was prepared by addition of an aliquot of FS-1 substrate which was dissolved in DMSO to the buffer and mixed well. The reaction is initiated by addition of 20 μL of the FS-1 mix to the remaining, preincubated assay components. The cleavage reaction of substrate to product is measured using a Molecular Devices fluorescence plate reader with the excitation and emission filter pairs of 355 nm and 495 nm, respectively. Apparent Ki values are determined by fitting the data to the integrated equation for competitive tight binding inhibition.
As for `O=C(Nc1cc(C(F)(F)F)c(-c2ccc(C(F)(F)F)cc2)cc1N1CCNCC1)c1cccc2ccccc12` [Compound 170, Naphthalene-1-carboxylic acid (5-piperazin-1-yl-2,4′-bis-trifluoromethyl-biphenyl-4-yl)-amide], the Ki is less than 3 µM.
Then `O=S(=O)(Nc1cc(C(F)(F)F)ccc1N1CCNCC1)c1ccc(-c2ccc(C(F)(F)F)cc2)cc1` [Compound 171, 4′-Trifluoromethyl-biphenyl-4-sulfonic acid (2-piperazin-1-yl-5-trifluoromethyl-phenyl)-amide], with less than 3 µM.
Then `O=S(=O)(Nc1cc(C(F)(F)F)ccc1N1CCNCC1)c1ccc(-c2ccccc2C(F)(F)F)cc1` [Compound 172, 2′-Trifluoromethyl-biphenyl-4-sulfonic acid (2-piperazin-1-yl-5-trifluoromethyl-phenyl)-amide], with less than 3 µM; and `O=C(Nc1ccc(-c2ccc(Cl)c(Cl)c2)cc1N1CCNCC1)c1cccc2ccccc12` [Compound 173, Naphthalene-1-carboxylic acid (3′,4′-dichloro-3-piperazin-1-yl-biphenyl-4-yl)-amide], with less than 3 µM.
Then `O=C(Nc1ccc(-c2ccc(C(F)(F)F)cc2)cc1N1CCNCC1)c1cccc2ccccc12` [Compound 174, Naphthalene-1-carboxylic acid (3-piperazin-1-yl-4′-trifluoromethyl-biphenyl-4-yl)-amide], with less than 3 µM; and `O=C(Nc1cc(F)c(-c2ccc(Cl)c(Cl)c2)cc1N1CCNCC1)c1cccc2ccccc12` [Compound 175, Naphthalene-1-carboxylic acid (3′,4′-dichloro-2-fluoro-5-piperazin-1-yl-biphenyl-4-yl)-amide], with less than 3 µM; and `O=C(Nc1cc(Br)cc(COc2ccccc2C(F)(F)F)c1N1CCNCC1)c1nccc2ccccc12` [Compound 176, Isoquinoline-1-carboxylic acid [5-bromo-2-piperazin-1-yl-3-(2-trifluoromethyl-phenoxymethyl)-phenyl]-amide], with less than 3 µM.
Consider `O=C(Nc1cc(-c2ccccc2)cc(COc2ccccc2C(F)(F)F)c1N1CCNCC1)c1nccc2ccccc12` [Compound 177, Isoquinoline-1-carboxylic acid [4-piperazin-1-yl-5-(2-trifluoromethyl-phenoxymethyl)-biphenyl-3-yl]-amide], for which the Ki was less than 3 µM.
Then `O=C(Nc1ccc(COc2ccccc2C(F)(F)F)cc1N1CCNCC1)c1nccc2ccccc12` [Compound 178, Isoquinoline-1-carboxylic acid [2-piperazin-1-yl-4-(2-trifluoromethyl-phenoxymethyl)-phenyl]-amide], with less than 3 µM; and `O=S(=O)(Nc1cc(-c2ccc(Cl)c(Cl)c2)ccc1N1CCNCC1)c1ccc(-c2ccc(C(F)(F)F)cc2)cc1` [Compound 179, 4′-Trifluoromethyl-biphenyl-4-sulfonic acid (3′,4′-dichloro-4-piperazin-1-yl-biphenyl-3-yl)-amide], with 3 to 30 µM.
Take `O=S(=O)(Nc1cc(-c2ccc(Cl)c(Cl)c2)ccc1N1CCNCC1)c1ccc(-c2cccc(Cl)c2)cc1` [Compound 180, 3′-Chloro-biphenyl-4-sulfonic acid (3′,4′-dichloro-4-piperazin-1-yl-biphenyl-3-yl)-amide]: the Ki lay within 3 to 30 µM.
Then `O=S(=O)(Nc1cc(-c2ccc(Cl)c(Cl)c2)ccc1N1CCNCC1)c1ccc(-c2ccc(Cl)cc2)cc1` [Compound 181, 4′-Chloro-biphenyl-4-sulfonic acid (3′,4′-dichloro-4-piperazin-1-yl-biphenyl-3-yl)-amide], with 3 to 30 µM; and `O=C(Nc1cc(Br)c(COc2ccccc2C(F)(F)F)cc1N1CCNCC1)c1nccc2ccccc12` [Compound 183, Isoquinoline-1-carboxylic acid [5-bromo-2-piperazin-1-yl-4-(2-trifluoromethyl-phenoxymethyl)-phenyl]-amide], with less than 3 µM.
On to `O=C(Nc1cc(-c2ccccc2)c(COc2ccccc2C(F)(F)F)cc1N1CCNCC1)c1nccc2ccccc12` [Compound 184, Isoquinoline-1-carboxylic acid [4-piperazin-1-yl-6-(2-trifluoromethyl-phenoxymethyl)-biphenyl-3-yl]-amide], for which the Ki was less than 3 µM.
As to `O=C(Nc1cc(-c2ccc(C(F)(F)F)cc2)c(COc2ccccc2C(F)(F)F)cc1N1CCNCC1)c1nccc2ccccc12` [Compound 185, Isoquinoline-1-carboxylic acid [4-piperazin-1-yl-4′-trifluoromethyl-6-(2-trifluoromethyl-phenoxymethyl)-biphenyl-3-yl]-amide], the Ki was in the range of 3 to 30 µM.
Then `O=C(Nc1cc(-c2ccc(O)cc2)c(COc2ccccc2C(F)(F)F)cc1N1CCNCC1)c1nccc2ccccc12` [Compound 186, Isoquinoline-1-carboxylic acid [4′-hydroxy-4-piperazin-1-yl-6-(2-trifluoromethyl-phenoxymethyl)-biphenyl-3-yl]-amide], with less than 3 µM.
Take `O=C(Nc1cc(-c2ccoc2)c(COc2ccccc2C(F)(F)F)cc1N1CCNCC1)c1nccc2ccccc12` [Compound 187, Isoquinoline-1-carboxylic acid [5-furan-3-yl-2-piperazin-1-yl-4-(2-trifluoromethyl-phenoxymethyl)-phenyl]-amide]: the Ki is less than 3 µM.
`CCOC(=O)c1cc(Br)cc(NCc2ccc3ccccc3n2)c1N1CCNCC1` [Compound 188, 5-Bromo-2-piperazin-1-yl-3-[(quinolin-2-ylmethyl)-amino]-benzoic acid ethyl ester]: the Ki lay within 3 to 30 µM.
Then `O=C(Nc1cc(C(F)(F)F)ccc1N1CCNCC1)c1cnc2ccccc2n1` [Compound 189, Quinoxaline-2-carboxylic acid (2-piperazin-1-yl-5-trifluoromethyl-phenyl)-amide], with 3 to 30 µM; and `O=C(Nc1cc(C(F)(F)F)ccc1N1CCNCC1)c1ccc2cnccc2n1` [Compound 190, [1,6]Naphthyridine-2-carboxylic acid (2-piperazin-1-yl-5-trifluoromethyl-phenyl)-amide], with 3 to 30 µM; and `O=C(O)C1CN(c2ccc(-c3ccc(C(F)(F)F)cc3)cc2NCc2ccc3ccccc3c2)CCN1` (stereo not shown) [Compound 191, 4-{3-[(Naphthalen-2-ylmethyl)-amino]-4′-trifluoromethyl-biphenyl-4-yl}-piperazine-2-carboxylic acid], with 3 to 30 µM.
Then `COC(=O)C1CN(c2ccc(-c3ccc(C(F)(F)F)cc3)cc2NCc2ccc3ccccc3c2)CCN1` (stereo not shown) [Compound 192, 4-{3-[(Naphthalen-2-ylmethyl)-amino]-4′-trifluoromethyl-biphenyl-4-yl}-piperazine-2-carboxylic acid methyl ester], with less than 3 µM; and `CC(C)NC(=O)C1CN(c2ccc(-c3ccc(C(F)(F)F)cc3)cc2NCc2ccc3ccccc3c2)CCN1` (stereo not shown) [Compound 193, 4-{3-[(Naphthalen-2-ylmethyl)-amino]-4′-trifluoromethyl-biphenyl-4-yl}-piperazine-2-carboxylic acid isopropylamide], with less than 3 µM; and `O=C(NCc1ccccc1)C1CN(c2ccc(-c3ccc(C(F)(F)F)cc3)cc2NCc2ccc3ccccc3c2)CCN1` (stereo not shown) [Compound 194, 4-{3-[(Naphthalen-2-ylmethyl)-amino]-4′-trifluoromethyl-biphenyl-4-yl}-piperazine-2-carboxylic acid benzylamide], with less than 3 µM.
Then `CN(C)C(=O)C1CN(c2ccc(-c3ccc(C(F)(F)F)cc3)cc2NCc2ccc3ccccc3c2)CCN1` (stereo not shown) [Compound 195, 4-{3-[(Naphthalen-2-ylmethyl)-amino]-4′-trifluoromethyl-biphenyl-4-yl}-piperazine-2-carboxylic acid dimethylamide], with less than 3 µM.
With `Cc1cc(Cl)ccc1OCCCC(=O)N1CCNCC1C(=O)Nc1ccc2ccccc2c1` (stereo not shown) [Compound 200, 1-[4-(4-Chloro-2-methyl-phenoxy)-butyryl]-piperazine-2-carboxylic acid naphthalen-2-ylamide], the Ki is greater than 30 µM.
Then `O=C(Nc1cc(C(F)(F)F)ccc1N1CCCNCC1)c1cccc2ccccc12` [Compound 201, Naphthalene-1-carboxylic acid (2-[1,4]diazepan-1-yl-5-trifluoromethyl-phenyl)-amide], with greater than 30 µM.
Then `O=C(Nc1ccc2ccccc2c1)C1CNCCc2c1[nH]c1ccccc21` (stereo not shown) [Compound 202, 1,2,3,4,5,6-Hexahydro-azepino[4,5-b]indole-5-carboxylic acid naphthalen-2-ylamide], with greater than 30 µM; and `O=C(NCc1ccco1)C1CNCCC1c1ccc(COc2ccccc2C(F)(F)F)cc1` (stereo not shown) [Compound 203, 4-[4-(2-Trifluoromethyl-phenoxymethyl)-phenyl]-piperidine-3-carboxylic acid (furan-2-ylmethyl)-amide], with greater than 30 µM.
Then `O=C(Nc1ccccc1)C1CNCCC1c1ccc(COc2ccccc2C(F)(F)F)cc1` (stereo not shown) [Compound 204], with greater than 30 µM; and `O=C(C1CNCCC1c1ccc(COc2ccccc2C(F)(F)F)cc1)N1CCc2ccccc2C1` (stereo not shown) [Compound 205, (3,4-Dihydro-1H-isoquinolin-2-yl)-{4-[4-(2-trifluoromethyl-phenoxymethyl)-phenyl]-piperidin-3-yl}-methanone], with greater than 30 µM.
